Test system: Escherichia coli K12 NCTC 10538
Assay: Hygienic Handrub test BS EN 1500:2013 on human volunteers' hands
Type: in vivo
Procedure: The composition of Example 2 was tested for compliance with requirements for chemical disinfectants and antiseptics in accordance with European Standard BS EN 1500:2013 Chemical Disinfectants and Antiseptics—Hygienic Handrub—Test Method and Requirements. The test organism was Escherichia coli K12 NCTC 10538 which was obtained as a freeze dried ampoule and was reconstituted using Tryptone Soy Broth and incubated to achieve a concentration of 2×10^9 Cfu/mL. The reference standard was propan-2-ol 60% v/v solution in sterile water. There were no deviations from the standard test method.
Human volunteer's hands were washed for 1 minute with diluted soft soap (5 mL), rinsed in running water and dried with a paper towel for at least 30 seconds. The hands were immersed up to the mid-metacarpals for five seconds and the liquid was allowed to drain back into the container for a maximum of 30 seconds before allowing to air dry for three minutes.
The reference standard (3.0 mL) was applied and rubbed for 30 seconds. This was repeated with a second portion of reference standard (3.0 mL) and rubbing for a further 30 seconds. This procedure was repeated for 20 volunteers.
This protocol was repeated on 20 volunteers using the composition of Example 2.
The protocol of Example 16 was repeated for the composition of Example 4.

CC(C)O [reference standard, propan-2-ol]
Mean Log Reduction Factor (Example 16, 20 volunteers, 2 x 3.0 mL, rubbed 30 seconds each): 3.89 | Mean Log Reduction Factor (Example 17, protocol of Example 16 repeated): 3.90

Source: patent US11051516B2, “Antimicrobial sanitizer compositions and their use” (GFS CORPORATION AUS PTY LTD, priority 2014, dated 2021)
